Measurements taken from publication PMC10354055, “An optimized Nurr1 agonist provides disease-modifying effects in Parkinson’s disease models” (Nature Communications, 2023).
Values joined by “and” are separate entries in the source; they are usually repeats but may differ in a detail not shown here. Identical values can stand only once.

How the values were obtained:
full-length Nurr1 = target: T1, full-length Nurr1 (Mus musculus, UniProt Q06219); experiment: Luciferase reporter assay, full-length Nurr1, MN9D cells; format: cell-based
T1 construct: Luciferase assays using Nurr1-LBD (c) or full-length Nurr1 (d) in SK-N-BE(2)C cells; expressed in transfected cells; host or cells: SK-N-BE(2)C (human neuroblastoma); MN9D (murine dopaminergic)
T1 sequence (Q06219 whole entry, the tested form may be a part): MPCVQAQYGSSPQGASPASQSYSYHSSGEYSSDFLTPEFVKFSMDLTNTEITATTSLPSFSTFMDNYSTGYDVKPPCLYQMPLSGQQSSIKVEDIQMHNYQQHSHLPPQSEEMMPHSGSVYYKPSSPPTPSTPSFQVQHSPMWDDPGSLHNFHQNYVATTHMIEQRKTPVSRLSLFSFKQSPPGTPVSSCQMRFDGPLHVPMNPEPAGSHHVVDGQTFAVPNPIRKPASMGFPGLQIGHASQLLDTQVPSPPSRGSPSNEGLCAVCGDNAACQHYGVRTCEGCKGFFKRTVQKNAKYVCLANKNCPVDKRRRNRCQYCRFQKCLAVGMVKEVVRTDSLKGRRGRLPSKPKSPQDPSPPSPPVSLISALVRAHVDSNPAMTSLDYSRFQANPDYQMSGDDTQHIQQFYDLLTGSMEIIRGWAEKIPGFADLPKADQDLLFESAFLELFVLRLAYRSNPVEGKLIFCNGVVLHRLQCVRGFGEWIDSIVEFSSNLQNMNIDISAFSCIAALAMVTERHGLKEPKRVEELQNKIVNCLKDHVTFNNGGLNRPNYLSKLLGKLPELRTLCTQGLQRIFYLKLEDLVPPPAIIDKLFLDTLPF
Source text: Nurr1 transactivity was normalized to β-galactosidase activity.

TH+ neurons = experiment: Primary rat VM neuron-glia co-culture, TH+ neurons (ICC); format: cell-based
Experimental: After blocking with 10% normal donkey serum (NDS) and 0.1% Triton X-100 solution for 1 h at room temperature, cells were incubated with primary antibodies against TH (1:1,000; Pel Freez, P40401) and Iba-1 (1:500; Abcam, ab5076) in 1% NDS and 0.1% Triton X-100 solution for overnight at 4 °C. […] Fluorescence images were taken using a KEYENCE microscope (BZ-X800; KEYENCE).

Iba-1+ microglia = experiment: Primary rat VM neuron-glia co-culture, Iba-1+ microglia (ICC); format: cell-based; conditions: for Iba-1+ cells (% of control): Fig. 2g
Experimental: Primary rat VM neuron-glia co-culture was prepared from E14 rat embryos (Fisher 344; Charles River)[33]. […] After blocking with 10% normal donkey serum (NDS) and 0.1% Triton X-100 solution for 1 h at room temperature, cells were incubated with primary antibodies against TH (1:1,000; Pel Freez, P40401) and Iba-1 (1:500; Abcam, ab5076) in 1% NDS and 0.1% Triton X-100 solution for overnight at 4 °C. Alexa Fluor 568- or Alexa Fluor 488-conjugated anti-rabbit or anti-goat secondary antibodies (1:500; Invitrogen) were incubated following the primary antibody incubation, and then cover glasses were mounted using FluoShield^TM mounting media (Sigma-Aldrich). Fluorescence images were taken using a KEYENCE microscope (BZ-X800; KEYENCE).

N27-A cells = experiment: Autophagic flux, Western blot LC3B and p62, N27-A cells; format: cell-based, rat; conditions: for Relative LC3B-II experession (normalized to β-actin): individual replicates; for autophagic flux (in words): N27-A
Experimental: (§1) Experiments were confirmed by duplicate measurements of the same sample. Quantification of immunoreactive bands was performed using ImageJ software (NIH, Bethesda, MD, USA) and expressed as a relative ratio against β-actin.
The band intensities were quantified using ImageJ and normalized against β-actin.

MPTP-induced male mice = experiment: IHC/stereology of TH+ fibers, TH+ DA neurons and NeuN+ neurons, MPTP-induced mice; format: in vivo, mouse
Experimental: MPTP (Sigma-Aldrich) was intraperitoneally (i.p.) injected (30 mg/kg) for 5 days (Day 1-5). […] To test dyskinetic involuntary behavior, an L-DOPA injected group was included, which received 50 mg/kg of L-DOPA and 15 mg/kg of benserazide (Sigma-Aldrich) (i.p.) for 16 days (Day 1–16). All compounds were administered 6 h post-MPTP injection to avoid any effect of compounds on the MPTP metabolism in the brain. Motor and non-motor related behavior tests were performed on the following days as described in Fig. 4a in an assessor- and observer-blinded fashion. Pre-training and baseline setup for motor-related behaviors were performed 3 days prior to the injections. Mice were sacrificed and subjected to immunohistochemistry. Mice were housed at the Animal Care Facilities of McLean Hospital under a 12-h light/12-h dark cycle, ambient temperature and humidity. Animals were handled in accordance with McLean Hospital’s Institutional Animal Care and Use Committee (Protocol #: 2015N000002) and followed National Institutes of Health guidelines.
Images were acquired using a KEYENCE microscope and quantified as the number or optical density of immunoreactive cells using ImageJ software.
The numbers of TH^+ DA neurons, NeuN^+ neurons, pS129 αSyn^+ cells in the SN and Iba-1^+ microglia in the SN and striatum were stereologically counted in six coronal sections (30 µm thickness) taken every 6th section (180 µm intervals) for each brain. The boundaries of the SN and striatum were delimited at low magnification (4X) to estimate each total area. Immunoreactive cells were counted with images taken at high magnification (×40) by a single blinded investigator. The group mean of the total number of immunoreactive cells from each brain was transformed as percentage of the number in the control group (%). For AAV-αSyn-induced mice, the group mean of the total number of cells in the ipsilateral side was transformed as a percentage of that observed in the contralateral side.

[1] = test system: AAV-αSyn-induced male mice; experiment: Western blot of human-αSyn in SNpc, AAV-αSyn-injected mice; format: in vivo, mouse
Experimental: as §1
Adeno-associated viruses (AAVs) expressing GFP only or αSyn (wild-type or A53T) were kindly provided by Dr. Yoon Seong Kim from the University of Central Florida. Recombinant AAV vectors were produced using modified pAAV-IRES-hrGFP (Agilent) to express wild-type and mutant human αSyn under control of the CMV promoter. Viral particles (AAV2) were produced at the University of Iowa Viral Vector Core according to standard operating procedures (https://medicine.uiowa.edu/vectorcore/). Male C57BL/6 mice (8-10 weeks, 25-30 g; Jackson Laboratories) were randomly assigned to 7 groups including empty vector (GFP) + VEH, wild-type αSyn (αSyn^WT) + VEH, mutant αSyn (αSyn^A53T) + VEH, αSyn^WT + CQ, αSyn^A53T + CQ, αSyn^WT + 4A7C-301 and αSyn^A53T + 4A7C-301 (n = 8 per group). AAV vectors were delivered into the substantia nigra unilaterally by stereotaxic surgery. […] CQ (40 mg/kg/day) or 4A7C-301 (5 mg/kg/day) administration was started 4 weeks after AAV vector injections and continued for […] before sacrifice at 8 weeks after surgery.

Structure (SMILES): CCN1CCN(c2cc(N3CCN(CC)CC3)nc(NCCNc3ccnc4cc(Cl)ccc34)n2)CC1 [4A7C-301, N^1-(4,6-bis(4-ethylpiperazin-1-yl)pyrimidin-2-yl)-N^2-(7-chloroquinolin-4-yl)ethane-1,2-diamine]
- Luciferase activity (fold) (full-length Nurr1; Fig. S1e, conc. 1 µM, replicates): 4.17 fold and 4.227 fold and 4.16 fold
- Luciferase activity (fold) (full-length Nurr1; Fig. S1e, conc. 10 µM, replicates): 4.281 fold and 4.08 fold and 4.219 fold
- Luciferase activity (fold) (full-length Nurr1; Fig. S1e, conc. 10-1 µM, replicates): 2.744 fold and 2.808 fold and 2.876 fold
- Luciferase activity (fold) (full-length Nurr1; Fig. S1e, conc. 10-2 µM, replicates): 1.103 fold and 1.099 fold and 1.116 fold
- Luciferase activity (fold) (full-length Nurr1; Fig. S1e, conc. 10-3 µM, replicates): 1.064 fold and 1.034 fold and 1.025 fold
- Luciferase activity (fold) (full-length Nurr1; Fig. S3b, 0.001 µM): 1.073 fold and 1.1005 fold and 1.0596 fold
- Luciferase activity (fold) (full-length Nurr1; Fig. S3b, 0.01 µM): 1.226 fold and 1.227 fold and 1.236 fold
- Luciferase activity (fold) (full-length Nurr1; Fig. S3b, 0.1 µM): 2.808 fold and 2.776 fold and 2.787 fold
- Luciferase activity (fold) (full-length Nurr1; Fig. S3b, 1 µM): 4.245 fold and 4.359 fold and 4.273 fold
- Luciferase activity (fold) (full-length Nurr1; Fig. S3b, 10 µM): 4.295 fold and 4.314 fold and 4.305 fold
- concentration of maximal effect on mDAN rescue (TH+ neurons; MPP+ or LPS): 500 nM
- concentration of maximal effect, times lower than CQ (TH+ neurons; mDAN rescue): 40 times
- Iba-1+ cells (% of control) (Iba-1+ microglia; 4A7C-301 only, 50 nM, 0.05 µM): 77.52 % of control and 86.67 % of control and 96.15 % of control
- Iba-1+ cells (% of control) (Iba-1+ microglia; 4A7C-301 only, 500 nM, 0.5 µM): 69.77 % of control and 67.62 % of control and 86.92 % of control
- Iba-1+ cells (% of control) (Iba-1+ microglia; + LPS, 5 nM, 0.005 µM): 240.31 % of control and 188.57 % of control and 210 % of control
- Iba-1+ cells (% of control) (Iba-1+ microglia; + LPS, 50 nM, 0.05 µM): 160.47 % of control and 128.57 % of control and 139.23 % of control
- Iba-1+ cells (% of control) (Iba-1+ microglia; + LPS, 500 nM, 0.5 µM): 102.4 % of control and 80.95 % of control and 100.31 % of control
- Iba-1+ cells (% of control) (Iba-1+ microglia; + LPS, 1000 nM, 1 µM): 86.82 % of control and 87.62 % of control and 103.69 % of control
- Iba-1+ cells (% of control) (Iba-1+ microglia; + MPP+, 5 nM, 0.005 µM): 114.73 % of control and 125.71 % of control and 144.62 % of control
- Iba-1+ cells (% of control) (Iba-1+ microglia; + MPP+, 50 nM, 0.05 µM): 96.12 % of control and 105.71 % of control and 78.46 % of control
- Iba-1+ cells (% of control) (Iba-1+ microglia; + MPP+, 500 nM, 0.5 µM): 64.34 % of control and 63.81 % of control and 42.31 % of control
- Iba-1+ cells (% of control) (Iba-1+ microglia; + MPP+, 1000 nM, 1 µM): 42.64 % of control and 72.38 % of control and 48.46 % of control
- concentration of optimal suppression of microglial activation (Iba-1+ microglia; against LPS): 500 nM
- concentration of optimal suppression, times lower than CQ (Iba-1+ microglia; against LPS): 40 times
- Relative LC3B-II experession (normalized to β-actin) (N27-A cells; Figure 3f, w/ MPP+, 0h): 0.779 and 0.690 and 0.799
- Relative LC3B-II experession (normalized to β-actin) (N27-A cells; Figure 3f, w/ MPP+, 4h): 1.160 and 0.971 and 1.153
- Relative LC3B-II experession (normalized to β-actin) (N27-A cells; Figure 3f, w/o MPP+, 0h): 0.728 and 0.654 and 0.714
- Relative LC3B-II experession (normalized to β-actin) (N27-A cells; Figure 3f, w/o MPP+, 4h): 0.866 and 0.789 and 0.873
- Relative LC3B-II experession (normalized to β-actin) (N27-A cells; Figure 3g, w/ MPP+, 0h): 1.116 and 1.094 and 1.285
- Relative LC3B-II experession (normalized to β-actin) (N27-A cells; Figure 3g, w/ MPP+, 4h): 0.639 and 0.745 and 0.861
- Relative LC3B-II experession (normalized to β-actin) (N27-A cells; Figure 3g, w/o MPP+, 0h): 1.157 and 1.166 and 1.326
- Relative LC3B-II experession (normalized to β-actin) (N27-A cells; Figure 3g, w/o MPP+, 4h): 0.499 and 0.504 and 0.579
- autophagic flux (in words) (N27-A cells; MPP+ 1 mM): significantly restored autophagy
- autophagic flux (in words) (N27-A cells; without MPP+): proceeded
- TH+ neurons in SNpc (% of control) (MPTP-induced male mice; Figure 4j, MPTP-induced mice, individual animal values): 63.18 % of control and 108.74 % of control and 134.92 % of control and 132.65 % of control and 112.51 % of control and 66.45 % of control and 53.87 % of control
- NeuN+ neurons in SNpc (% of control) (MPTP-induced male mice; Figure 4k, MPTP-induced mice, individual animal values): 85.48 % of control and 97.85 % of control and 98.38 % of control and 115.18 % of control
- TH fiber density in STR (% of control) (MPTP-induced male mice; Figure 4h, MPTP-induced mice, individual animal values): 116.18 % of control and 48.63 % of control and 93.47 % of control and 82.29 % of control and 106.49 % of control and 100.23 % of control and 91.26 % of control
- TH+ fibers in STR, TH+ DA neurons and NeuN+ neurons in SN (in words) (MPTP-induced male mice; compared to MPTP only group): significantly retained
- accumulation of αSyn (in words) [1]: significantly diminished
